The values below come from patent publication US20050222146A1, “N-substituted-n-sulfonylaminocyclopropane compounds and pharmaceutical use thereof” (priority 2003, published 2005).

The target in one assay is T1, aggrecanase-1 (Homo sapiens, UniProt O75173).
T1 sequence (O75173 213-837): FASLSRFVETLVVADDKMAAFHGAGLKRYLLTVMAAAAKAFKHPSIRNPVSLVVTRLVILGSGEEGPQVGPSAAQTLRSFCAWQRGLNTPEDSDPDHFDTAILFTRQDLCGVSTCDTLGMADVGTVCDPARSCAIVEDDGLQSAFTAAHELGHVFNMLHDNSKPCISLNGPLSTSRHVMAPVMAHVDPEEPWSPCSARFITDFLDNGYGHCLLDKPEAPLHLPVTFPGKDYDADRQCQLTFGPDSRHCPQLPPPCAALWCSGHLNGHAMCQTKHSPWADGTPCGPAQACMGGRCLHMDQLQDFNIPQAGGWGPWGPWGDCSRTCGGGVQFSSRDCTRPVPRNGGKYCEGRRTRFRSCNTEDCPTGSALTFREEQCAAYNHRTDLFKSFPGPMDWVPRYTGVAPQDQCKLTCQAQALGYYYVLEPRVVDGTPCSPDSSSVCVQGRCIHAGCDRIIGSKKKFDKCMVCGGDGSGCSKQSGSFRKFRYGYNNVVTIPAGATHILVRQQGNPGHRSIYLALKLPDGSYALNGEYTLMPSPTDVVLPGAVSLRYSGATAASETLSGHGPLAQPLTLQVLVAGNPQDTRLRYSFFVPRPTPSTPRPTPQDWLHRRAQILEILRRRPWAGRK
Description: Aggrecanase-1 inhibitory action, Particle Assay (GAG release from aggrecan-containing polyacrylamide particles). It is filed as biochemical. To be noted: 37° C. for 15 hr, read-out: Experimental Example 1 IC50 AG1. The method, boiled down: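 Enzyme and test compound (DMSO dilutions) in Tris-HCl buffer incubated with aggrecan-containing polyacrylamide particles at 37 °C for 15 hr. Released GAG in supernatant quantified with 1,9-dimethylmethylene blue at 595 nm against whale chondroitin sulfate standard; % inhibition versus enzyme-free and inhibitor-free wells gives IC50 (μM).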

The next assay addresses T2, MMP-1 (Homo sapiens, UniProt P03956).
T2 sequence (P03956 100-469): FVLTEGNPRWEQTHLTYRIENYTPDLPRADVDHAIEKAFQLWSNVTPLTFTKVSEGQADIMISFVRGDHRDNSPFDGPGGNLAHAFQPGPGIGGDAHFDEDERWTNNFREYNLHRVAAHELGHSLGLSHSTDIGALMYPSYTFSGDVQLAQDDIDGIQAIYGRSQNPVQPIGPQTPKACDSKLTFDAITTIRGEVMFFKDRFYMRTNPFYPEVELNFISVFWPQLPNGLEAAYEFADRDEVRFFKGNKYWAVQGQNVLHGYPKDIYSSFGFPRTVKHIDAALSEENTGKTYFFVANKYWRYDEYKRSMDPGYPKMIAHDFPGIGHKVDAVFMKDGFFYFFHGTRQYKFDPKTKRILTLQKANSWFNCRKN
Description: MMP-1 inhibitory action, Type I collagen Activity Measurement kit (FITC-labeled collagen type I). Particulars: 37° C. for 3 hr, read-out: Experimental Example 2 IC50 MMP1. In kind it is biochemical.

For the compound `O=C(O)C1(N(Cc2noc(=O)[nH]2)S(=O)(=O)c2ccc(-c3ccc(Cl)cc3)cc2)CC1c1ccccc1` (stereo not drawn) [Example 1-64, (R*,2S*)-1-[(4′-chlorobiphenyl-4-sulfonyl)-(5-oxo-4,5-dihydro[1.2.4]oxadiazol-3-ylmethyl)-amino]-2-phenylcyclopropanecarboxylic acid], the 50% inhibitory concentration (IC50) on aggrecanase-1 was less than 0.1 µM; on MMP-1, no less than 10 µM.

With `NC(=O)CN(C1(C(=O)O)C[C@H]1c1ccccc1)S(=O)(=O)c1ccc(-c2ccc(Cl)cc2)cc1` (stereo in doubt) [Example 1-36, (1R*,2S)-1-[carbamoylmethyl-(4′-chloro-biphenyl-4-sulfonyl)-amino]-2-phenyl-cyclopropanecarboxylic acid], the concentration for half-maximal inhibition (IC50) is less than 1 µM at aggrecanase-1 and no less than 10 µM at MMP-1.

As for `O=C(O)c1cccn1CCN([C@]1(C(=O)O)C[C@H]1c1ccccc1)S(=O)(=O)c1ccc(-c2ccc(Cl)cc2)cc1` (relative stereo) [Example 1-69, 1-{2-[((1R*,2S*)-1-carboxy-2-phenyl-cyclopropyl)-(4′-chloro-biphenyl-4-sulfonyl)-amino]-ethyl}-1H-pyrrole-2-carboxylic acid], the IC50 is less than 1 µM on aggrecanase-1 and no less than 10 µM at MMP-1.

In the case of `Cc1ccc([C@@H]2C[C@@]2(C(=O)O)N(CC(=O)O)S(=O)(=O)c2ccc(-c3ccc(Cl)cc3)cc2)cc1` (relative stereo) [Example 1-18, (1R*,2S*)-1-[carboxymethyl-(4′-chloro-biphenyl-4-sulfonyl)-amino]-2-(4-methyl-phenyl)-cyclopropanecarboxylic acid], the values for the 50% inhibitory concentration (IC50) at aggrecanase-1 and at MMP-1 were less than 1 µM and no less than 10 µM, respectively.

With `N#Cc1ccc([C@@H]2C[C@@]2(C(=O)O)N(CC(=O)O)S(=O)(=O)c2ccc(-c3ccc(Cl)cc3)cc2)cc1` (relative stereo) [Example 1-30, (1R*,2S*)-1-[carboxymethyl-(4′-chloro-biphenyl-4-sulfonyl)-amino]-2-(4-cyano-phenyl)-cyclopropanecarboxylic acid], the figures for the IC50 on aggrecanase-1 and on MMP-1 were less than 1 µM and no less than 10 µM, respectively.

Consider `O=C(O)CCCN([C@]1(C(=O)O)C[C@H]1c1ccccc1)S(=O)(=O)c1ccc(-c2ccc(Cl)cc2)cc1` (relative stereo) [Example 1-93, (1R*,2S*)-1-[(3-carboxy-propyl)-(4′-chloro-biphenyl-4-sulfonyl)-amino]-2-phenyl-cyclopropanecarboxylic acid], for which the values for the IC50 at aggrecanase-1 and on MMP-1 were less than 1 µM and no less than 10 µM, respectively.

For the compound `CCOC(=O)CN([C@]1(C(=O)O)C[C@H]1c1cccc(Oc2ccccc2)c1)S(=O)(=O)c1ccc(-c2ccc(Cl)cc2)cc1` (relative stereo) [Example 1-52, (1R*,2S*)-1-[(4′-chloro-biphenyl-4-sulfonyl)-ethoxycarbonylmethyl-amino]-2-(3-phenoxy-phenyl)-cyclopropanecarboxylic acid], the IC50 at aggrecanase-1 was less than 1 µM; at MMP-1 it was no less than 10 µM.

For the compound `O=C(O)[C@@]1(N(CCNS(=O)(=O)C(F)(F)F)S(=O)(=O)c2ccc(-c3ccc(Cl)cc3)cc2)C[C@H]1c1cccc(Oc2ccccc2)c1` (relative stereo) [Example 1-81, (1R*,2S*)-1-[(4′-chloro-biphenyl-4-sulfonyl)-(2-trifluoromethanesulfonylamino-ethyl)-amino]-2-(3-phenoxy-phenyl)-cyclopropanecarboxylic acid], the IC50 at aggrecanase-1 was less than 1 µM; at MMP-1 it was no less than 10 µM.

`O=C(O)c1cn(CCN(C2(C(=O)O)CC2c2ccccc2)S(=O)(=O)c2ccc(-c3ccc(Cl)cc3)cc2)cn1` (stereo not drawn) [Example 1-104, 1-{2-[(1R*,2S*)-1-carboxy-2-phenyl-cyclopropyl)-(4′-chloro-biphenyl-4-sulfonyl)-amino]-ethyl}-1H-imidazole-4-carboxylic acid]: the IC50 was less than 0.1 µM at aggrecanase-1 and no less than 10 µM on MMP-1.

In the case of `Cc1cccc([C@@H]2C[C@@]2(C(=O)O)N(CC(=O)O)S(=O)(=O)c2ccc(-c3ccc(Cl)cc3)cc2)c1` (relative stereo) [Example 1-20, (1R*,2S*)-1-[carboxymethyl-(4′-chloro-biphenyl-4-sulfonyl)-amino]-2-(3-methyl-phenyl)-cyclopropanecarboxylic acid], the IC50 on aggrecanase-1 is less than 1 µM; on MMP-1, no less than 10 µM.

As to `COC(=O)c1cn(CCN([C@]2(C(=O)O)C[C@H]2c2ccccc2)S(=O)(=O)c2ccc(-c3ccc(Cl)cc3)cc2)cn1` (relative stereo) [Example 1-112, 1-{2-[((1R*,2S*)-1-carboxy-2-phenyl-cyclopropyl)-(4′-chloro-biphenyl-4-sulfonyl)-amino]-ethyl}-1H-imidazole-4-carboxylic acid methyl ester], the values for the concentration for half-maximal inhibition (IC50) on aggrecanase-1 and on MMP-1 were less than 1 µM and no less than 10 µM, respectively.

Regarding `O=C(O)[C@@]1(N(Cc2cc(=O)[nH][nH]2)S(=O)(=O)c2ccc(-c3ccc(Cl)cc3)cc2)C[C@H]1c1ccccc1` (relative stereo) [Example 1-5, (1R*,2S*)-1-[(4′-chloro-biphenyl-4-sulfonyl)-(5-oxo-2,5-dihydro-1H-pyrazol-3-ylmethyl)-amino]-2-phenyl-cyclopropanecarboxylic acid], the IC50 at aggrecanase-1 was less than 1 µM; on MMP-1, no less than 10 µM.

For the compound `O=C(O)[C@]12[C@H](CCN1S(=O)(=O)c1ccc(-c3ccc(Cl)cc3)cc1)[C@H]2c1ccccc1` (relative stereo) [Example 2-02, (1R*, 5R*,6S*)-2-(4′-chlorobiphenyl-4-sulfonyl)-6-phenyl-2-aza-bicyclo[3.1.0]hexane-1-carboxylic acid], the IC50 on aggrecanase-1 and at MMP-1 was no less than 10 µM throughout.

As to `O=C1NS(=O)(=O)N(CCN(C2(C(=O)O)CC2c2ccccc2)S(=O)(=O)c2ccc(-c3ccc(Cl)cc3)cc2)C1=O` (stereo not drawn) [Example 1-83, (1R*,2S*)-1-{(4′-chloro-biphenyl-4-sulfonyl)-[2-(1,1,3,4-tetraoxo-llambda*6*-[1,2,5]thiadiazolidin-2-yl)-ethyl]-amino}-2-phenyl-cyclopropanecarboxylic acid], the IC50 at aggrecanase-1 was less than 0.1 µM; at MMP-1 it was no less than 10 µM.

Consider `O=C(O)[C@@]1(N(CCNS(=O)(=O)C(F)(F)F)S(=O)(=O)c2ccc(-c3ccc(Cl)cc3)cc2)C[C@H]1c1cccc(NCCN2CCCCC2)c1` (relative stereo) [Example 1-89, (1R*,2S*)-1-[(4′-chloro-biphenyl-4-sulfonyl)-(2-trifluoromethanesulfonylamino-ethyl)-amino]-2-[3-(2-piperidin-1-yl-ethylamino)-phenyl]-cyclopropanecarboxylic acid], for which the 50% inhibitory concentration (IC50) is less than 1 µM at aggrecanase-1 and no less than 10 µM on MMP-1.

Turning to `O=C(O)[C@@]1(N(CCNc2nnn[nH]2)S(=O)(=O)c2ccc(-c3ccc(Cl)cc3)cc2)C[C@H]1c1ccccc1` (relative stereo) [Example 1-77, (1R*,2S*)-1-{(4′-chloro-biphenyl-4-sulfonyl)-[2-(1H-tetrazol-5-ylamino)-ethyl]-amino}-2-phenyl-cyclopropanecarboxylic acid], the IC50 on aggrecanase-1 was less than 1 µM; on MMP-1 it was no less than 10 µM.

Take `O=C(O)CN([C@]1(C(=O)O)C[C@H]1c1ccccc1Oc1ccccc1)S(=O)(=O)c1ccc(-c2ccc(Cl)cc2)cc1` (relative stereo) [Example 1-42, (1R*,2S*)-1-[carboxymethyl-(4′-chloro-biphenyl-4-sulfonyl)-amino]-2-(2-phenoxy-phenyl)-cyclopropanecarboxylic acid]: the concentration for half-maximal inhibition (IC50) at aggrecanase-1 was less than 0.1 µM; at MMP-1, no less than 10 µM.

Take `O=C(O)CN([C@]1(C(=O)O)C[C@H]1c1ccccc1C(F)(F)F)S(=O)(=O)c1ccc(-c2ccc(Cl)cc2)cc1` (relative stereo) [Example 1-33, (1R*,2S*)-1-[carboxymethyl-(4′-chloro-biphenyl-4-sulfonyl)-amino]-2-(2-trifluoromethyl-phenyl)-cyclopropanecarboxylic acid]: the IC50 is less than 1 µM on aggrecanase-1 and no less than 10 µM at MMP-1.

As for `NS(=O)(=O)NCCN(C1(C(=O)O)CC1c1ccccc1)S(=O)(=O)c1ccc(-c2ccc(Cl)cc2)cc1` (centres unmarked) [Example 1-84], the concentration for half-maximal inhibition (IC50) at aggrecanase-1 was less than 1 µM; at MMP-1 it was no less than 10 µM.
